# Measurements from patent US20200115698A1, “PHARMACEUTICAL COMBINATION FOR TREATMENT OF FABRY DISEASE AND USE THEREOF” (MEIJI PHARMACEUTICAL UNIVERSITY, priority 2017, published 2020).
# What was measured:
# α-NAGA mutant = target: T1, α-NAGA mutant (Homo sapiens, UniProt P17050, A191L/S188E); test: Screening of inhibitor (2): inhibition of enzyme activity of α-NAGA mutant; assay type: biochemical; conditions: 0.1, 1, or 10 μM compound, pH 4.6, 37° C., 30 minutes; FIG. 1
# T1 sequence (P17050 with tags, fused parts or gaps S188E/A191L): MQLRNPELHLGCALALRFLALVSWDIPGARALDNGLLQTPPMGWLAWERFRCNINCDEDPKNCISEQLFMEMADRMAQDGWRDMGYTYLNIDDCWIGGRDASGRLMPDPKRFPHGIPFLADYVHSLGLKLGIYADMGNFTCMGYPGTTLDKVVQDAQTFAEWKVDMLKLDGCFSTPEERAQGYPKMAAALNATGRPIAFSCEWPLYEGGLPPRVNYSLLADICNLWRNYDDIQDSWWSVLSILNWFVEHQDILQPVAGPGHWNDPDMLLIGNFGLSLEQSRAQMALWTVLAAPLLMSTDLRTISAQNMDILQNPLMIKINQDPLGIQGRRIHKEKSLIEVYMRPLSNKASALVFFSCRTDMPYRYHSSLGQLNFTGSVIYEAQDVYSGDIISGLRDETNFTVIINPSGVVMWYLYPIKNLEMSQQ
# Experimental: The second screening was carried out as follows: DGJ, GBS, N-C-DGJ, N-DGJ, or N-HE-DGJ dissolved in purified water or DMSO was added to 25 ng of an α-NAGA mutant and 4 mM 4-methylumbelliferylα-D-galactopyranoside dissolved in 0.1 M phosphate-citrate buffer (pH 4.6) such that a concentration of DGJ, GBS, N-C-DGJ, N-DGJ, or N-HE-DGJ became 0.1, 1, or 10 μM, and the mixture thus obtained was caused to react at 37° C. for 30 minutes (the total amount was 50 μl). After the reaction was finished, 950 μl of 0.2 M glycine buffer (pH 10.7) was added to stop the reaction. Then, released 4-methylumbelliferone was measured at an excitation wavelength of 355 nm and at a fluorescence wavelength of 460 nm with use of Wallac 1420 ARVO MX Multilabel Counter. Remaining enzyme activity was calculated based on the assumption that an enzyme activity value obtained in a case where purified water or DMSO is added instead of the inhibitor candidate compound is 100%. FIG. 1 is a view illustrating inhibition of enzyme activity of an α-NAGA mutant by DGJ.
# [1] = system: cultivated fibroblast derived from a patient of Fabry disease; test: Simultaneous addition of α-NAGA mutant and DGJ to cultivated fibroblast derived from patient of Fabry disease; assay type: cell-based, human
# Experimental: A cultivated fibroblast derived from a patient of Fabry disease was cultured at 37° C. under a 5% carbon dioxide environment with use of an F-10 medium to which a 10% fetal calf serum and an antibiotic substance had been added. First, concentration dependence of DGJ with respect to uptake efficiency of an α-NAGA mutant was analyzed. The cells were seeded to a 12-well plate at 1.0×10^5 cells/well. Then, the medium was exchanged with a medium containing 1 μg/mL of an α-NAGA mutant and any of concentrations (0, 1, 10, and 100 μM) of DGJ, and cultivation was carried out for 24 hours. The cells were cleaned three times with PBS, then treated with use of trypsin, and then collected. 20 mM MES (pH 6.0) containing Complete Mini (Roche) was added to the collected cells, and the cells were then subjected to an ultrasonic treatment. The homogenate thus obtained was subjected to centrifugal separation under conditions of 4° C. and 12,000 rpm, and the obtained supernatant liquid was used as samples for enzyme activity measurement, protein quantification, and Western blotting.
# Next, in order to confirm time dependence, 1 μg/mL of an α-NAGA mutant and 10 μM of DGJ were added to the cells, and cultivation was carried out for 24 hours, 48 hours, and 72 hours. Then, enzyme activity measurement, protein quantification, and Western blotting were carried out. […]
smiles,measurement,setting,value
"OCC1NCC(O)C(O)C1O [DGJ, (2R,3S,4R,5S)-2-(hydroxymethyl)piperdine-3,4,5-triol]",inhibition of enzyme activity of an α-NAGA mutant (remaining enzyme activity),α-NAGA mutant,had the effect of inhibiting activity of an α-NAGA mutant
same,α-NAGA mutant enzyme activity in cells,"[1]; 1 μg/mL α-NAGA mutant plus 0-100 μM DGJ 24 hours, or 10 μM DGJ 24-72 hours, FIG. 6(a), 7(a)",enzyme activity was improved
same,amount of protein of the α-NAGA mutant taken in a cell (Western blotting),"[1]; simultaneous addition of DGJ versus no DGJ, FIG. 6(b), 7(b)",confirmed to be increased
